Test results taken from patent publication US20160046618A1, “Cyclopropyl Fused Thiazin-2-Amine Compounds as Beta-Secretase Inhibitors and Methods of Use” (AMGEN INC., priority 2014, published 2016).
Values belong to the molecule of their own block, whether it stands above or below them.

Tests used:
human recombinant BACE1 = human recombinant BACE1 (Homo sapiens (Human), UniProt P56817); assay: In vitro enzymatic BACE1 FRET assay; type: biochemical; details: BACE1 FRET enzyme assay; read-out: IC50 IP (μM) BACE1 enzyme
Chain of human recombinant BACE1 (P56817 46-501): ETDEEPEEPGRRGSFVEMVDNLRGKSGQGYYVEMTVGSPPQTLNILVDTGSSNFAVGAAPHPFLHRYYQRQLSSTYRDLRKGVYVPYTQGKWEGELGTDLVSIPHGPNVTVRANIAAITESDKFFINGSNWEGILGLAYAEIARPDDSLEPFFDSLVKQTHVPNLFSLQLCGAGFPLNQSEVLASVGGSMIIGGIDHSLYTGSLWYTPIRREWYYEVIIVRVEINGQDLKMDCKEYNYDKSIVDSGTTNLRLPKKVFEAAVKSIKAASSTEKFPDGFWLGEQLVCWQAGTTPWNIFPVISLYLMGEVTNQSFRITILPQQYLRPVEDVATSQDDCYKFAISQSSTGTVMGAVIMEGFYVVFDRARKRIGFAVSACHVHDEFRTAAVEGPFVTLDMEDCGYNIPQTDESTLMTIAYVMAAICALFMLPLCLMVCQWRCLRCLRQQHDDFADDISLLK
Summary of the method: (§1)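 Protease purified by Ni-NTA chromatography; start with FRET substrate (50 nM); incubate 1 h; quench with Tris to neutral pH; read fluorescence ex 488 / em 590 nm.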

human recombinant BACE2 = human recombinant BACE2 (Homo sapiens (Human), UniProt Q9Y5Z0); assay: In vitro enzymatic BACE2 FRET assay; type: biochemical; details: BACE2 FRET enzyme assay; read-out: IC50 IP (μM) BACE2 enzyme
Chain of human recombinant BACE2 (Q9Y5Z0 63-518): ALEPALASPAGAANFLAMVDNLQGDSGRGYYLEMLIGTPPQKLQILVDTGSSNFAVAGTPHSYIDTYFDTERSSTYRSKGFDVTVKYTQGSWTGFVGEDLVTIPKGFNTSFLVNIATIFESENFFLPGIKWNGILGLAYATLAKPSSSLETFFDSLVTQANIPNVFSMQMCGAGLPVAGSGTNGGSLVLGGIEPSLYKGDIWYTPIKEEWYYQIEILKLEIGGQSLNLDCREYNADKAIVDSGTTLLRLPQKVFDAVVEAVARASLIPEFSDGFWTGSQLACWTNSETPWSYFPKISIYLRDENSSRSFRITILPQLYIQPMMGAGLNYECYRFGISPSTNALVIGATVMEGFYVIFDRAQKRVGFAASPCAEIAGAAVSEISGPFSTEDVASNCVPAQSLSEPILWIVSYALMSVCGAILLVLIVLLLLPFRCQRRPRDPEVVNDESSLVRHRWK
Summary of the method: as §1

[1] = test system: Aβ40 in conditioned medium of cells stably expressing Amyloid Precursor Protein (APP); assay: In vitro BACE-1 cell-based assay (Aβ40 sandwich ELISA); details: BACE1 cell-based assay; read-out: IC50 IP (μM) BACE1 cell
Summary of the method: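 APP-expressing cells treated 24 h at 37 °C with compound in 10-point dose response (top 100 μM or 10 μM, 0.1% DMSO final). Secreted Aβ40 in conditioned medium quantified by sandwich ELISA (pAb40 capture, biotinylated 6E10 detection, time-resolved europium fluorescence); IC50 from percent inhibition versus concentration.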

Recombinant Cat D = Recombinant Cat D (Homo sapiens (Human), UniProt P07339); assay: In vitro enzymatic Cathepsin D (Cat D) FRET assay; type: biochemical; details: Cathepsin D FRET enzyme assay; read-out: IC50 IP (μM) CatD
Chain of Recombinant Cat D (P07339 65-412): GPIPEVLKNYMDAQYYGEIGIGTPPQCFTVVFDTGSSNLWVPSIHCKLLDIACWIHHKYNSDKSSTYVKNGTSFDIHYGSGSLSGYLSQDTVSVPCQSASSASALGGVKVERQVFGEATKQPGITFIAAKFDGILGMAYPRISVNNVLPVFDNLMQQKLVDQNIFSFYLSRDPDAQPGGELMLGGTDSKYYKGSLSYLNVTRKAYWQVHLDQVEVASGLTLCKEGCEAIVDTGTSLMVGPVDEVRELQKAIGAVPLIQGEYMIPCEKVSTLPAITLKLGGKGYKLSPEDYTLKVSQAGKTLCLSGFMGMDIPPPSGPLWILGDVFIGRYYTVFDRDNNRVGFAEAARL
Summary of the method: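 Cleavage of a 20 nM fluorophore/quencher peptide by CHO-expressed recombinant Cat D proceeded for one hour at pH 3.5 (0.05 M citrate, 5 mM CHAPS, 10% DMSO final). Tris addition neutralized the pH to end the reaction. Fluorescence was then measured (ex 500 nm/em 580 nm).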

Aβ 40 in rat CSF = assay: In vivo inhibition of beta-secretase: Aβ40 reduction in rat CSF; details: after 4 h
From the text: (§2) In Vivo Inhibition of Beta-Secretase
Several animal models, including mouse, rat, dog, and monkey, may be used to screen for inhibition of beta-secretase activity in vivo following administration of a test compound sample. Animals used in this invention can be wild type, transgenic, or gene knockout animals. For example, the Tg2576 mouse model, prepared and conducted as described in Hsiao et al., 1996, Science 274, 99-102, and other non-transgenic or gene knockout animals are useful to analyze in vivo inhibition of Amyloid beta peptide (Abeta) production in the presence of inhibitory test compounds. Generally, 2 to 18 month old Tg2576 mice, gene knockout mice or non-transgenic animals are administered test compounds formulated in vehicles, such as cyclodextran, phosphate buffers, hydroxypropyl methylcellulose or other suitable vehicles. One to twenty-four hours following the administration of compound, animals are sacrificed, and brains as well as cerebrospinal fluid (CSF) and plasma are removed for analysis of A-beta levels and drug or test compound concentrations (Dovey et al., 2001, Journal of Neurochemistry, 76,173-181) Beginning at time 0, animals are administered by oral gavage, or other means of delivery such as intravenous injection, an inhibitory test compound of up to 100 mg/kg in a standard, conventional formulation, such as 2% hydroxypropyl methylcellulose, 1% Tween80. A separate group of animals receive 2% hydroxypropyl methylcellulose, 1% Tween80 alone, containing no test compound, and serve as a vehicle-control group. At the end of the test period, animals are sacrificed and brain tissues, plasma or cerebrospinal fluid are collected. […] Homogenates are centrifuged at 355,000 g, 4° C. for 30 minutes. CSF or brain supernatants are then analyzed for the presence of A-beta peptide by specific sandwich ELISA assays based on ECL (Electrochemiluminescence) technology. For example, rat Abeta40 is measured using biotinylated-4G8 (Signet) as a capture antibody and Fab40 (an in-house antibody specific to the C-terminal of Abeta40) as a detection antibody. For example, 4 hours after administration of 30 mg/kg oral dose of the test compound in 2% hydroxypropyl methylcellulose, 1% Tween80 (pH2.2) to 200 g male Sprague Dawley rats, amyloid beta peptide levels are measured for reduction by X % and Y % in cerebrospinal fluid and brain, respectively, when compared to the levels measured in the vehicle-treated or control mice.
(§3) Actual vehicles used: Oral: 2% HPMC, 1% Tween80, pH 2.2
The compounds of the invention may be shown to reduce the formation and/or deposition of amyloid beta peptide in the cerebrospinal fluid (CSF) as well as in the brain of a mouse or rat at either 3 mpk, 10 mpk or 30 mpk (mpk=mg compound per kg weight of the animal) dosing concentrations after 4 h.

Aβ 40 in rat brain = assay: In vivo inhibition of beta-secretase: Aβ40 reduction in rat brain; details: after 4 h
From the text: as §2
Several animal models, including mouse, rat, dog, and monkey, may be used to screen for inhibition of beta-secretase activity in vivo following administration of a test compound sample. Animals used in this invention can be wild type, transgenic, or gene knockout animals. […] One to twenty-four hours following the administration of compound, animals are sacrificed, and brains as well as cerebrospinal fluid (CSF) and plasma are removed for analysis of A-beta levels and drug or test compound concentrations (Dovey et al., 2001, Journal of Neurochemistry, 76,173-181) Beginning at time 0, animals are administered by oral gavage, or other means of delivery such as intravenous injection, an inhibitory test compound of up to 100 mg/kg in a standard, conventional formulation, such as 2% hydroxypropyl methylcellulose, 1% Tween80. A separate group of animals receive 2% hydroxypropyl methylcellulose, 1% Tween80 alone, containing no test compound, and serve as a vehicle-control group. At the end of the test period, animals are sacrificed and brain tissues, plasma or cerebrospinal fluid are collected. […] Homogenates are centrifuged at 355,000 g, 4° C. for 30 minutes. CSF or brain supernatants are then analyzed for the presence of A-beta peptide by specific sandwich ELISA assays based on ECL (Electrochemiluminescence) technology. For example, rat Abeta40 is measured using biotinylated-4G8 (Signet) as a capture antibody and Fab40 (an in-house antibody specific to the C-terminal of Abeta40) as a detection antibody.
as §3

Compound: NC1=N[C@](CF)(c2cc(NC(=O)c3ccc(Cl)cn3)ccc2F)[C@@H]2C[C@@H]2S1 [Example 1, N-(3-((1S,5S,6S)-3-amino-5-(fluoromethyl)-2-thia-4-azabicyclo[4.1.0]hept-3-en-5-yl)-4-fluorophenyl)-5-chloro-2-pyridinecarboxamide]
IC50 (human recombinant BACE1): 0.00551 µM
IC50 (human recombinant BACE2): 0.0022 µM
IC50 [1]: 0.00871 µM
IC50 (Recombinant Cat D): 74.5 µM
% Aβ 40 reduction in rat CSF at 10 mpk (Aβ 40 in rat CSF): 58%
% Aβ 40 reduction in rat brain at 10 mpk (Aβ 40 in rat brain): 28%

Compound: NC1=N[C@](CF)(c2cc(NC(=O)c3ccc(Cl)cn3)cc(F)c2F)[C@@H]2C[C@@H]2S1 [Example 5, N-(3-((1S,5S,6S)-3-amino-5-(fluoromethyl)-2-thia-4-azabicyclo[4.1.0]hept-3-en-5-yl)-4,5-difluorophenyl)-5-chloro-2-pyridinecarboxamide]
IC50 (human recombinant BACE1): 0.00855 µM
IC50 (human recombinant BACE2): 0.00154 µM
IC50 [1]: 0.0326 µM
IC50 (Recombinant Cat D): 1420 µM
% Aβ 40 reduction in rat CSF at 10 mpk (Aβ 40 in rat CSF): 43%
% Aβ 40 reduction in rat brain at 10 mpk (Aβ 40 in rat brain): 19%

Compound: Cc1cc(C#N)cnc1C(=O)Nc1cc(F)c(F)c([C@@]2(CF)N=C(N)S[C@H]3C[C@H]32)c1 [Example 13, N-(3-((1S,5S,6S)-3-amino-5-(fluoromethyl)-2-thia-4-azabicyclo[4.1.0]hept-3-en-5-yl)-4,5-difluorophenyl)-5-cyano-3-methyl-2-pyridinecarboxamide]
IC50 (human recombinant BACE1): 0.00548 µM
IC50 (human recombinant BACE2): 0.00618 µM
IC50 [1]: 0.00899 µM
IC50 (Recombinant Cat D): > 400 µM
% Aβ 40 reduction in rat CSF at 10 mpk (Aβ 40 in rat CSF): 70%
% Aβ 40 reduction in rat brain at 10 mpk (Aβ 40 in rat brain): 56%

Compound: C#CCOc1cnc(C(=O)Nc2cc(F)c(F)c([C@@]3(CF)N=C(N)S[C@H]4C[C@H]43)c2)cn1 [Example 20, N-(3-((1S,5S,6S)-3-amino-5-(fluoromethyl)-2-thia-4-azabicyclo[4.1.0]hept-3-en-5-yl)-4,5-difluorophenyl)-5-(2-propyn-1-yloxy)-2-pyrazinecarboxamide]
IC50 (human recombinant BACE1): 0.0006 µM
IC50 (human recombinant BACE2): 0.0394 µM
IC50 [1]: 0.00064 µM
IC50 (Recombinant Cat D): 47.1 µM
% Aβ 40 reduction in rat CSF at 10 mpk (Aβ 40 in rat CSF): 80%
% Aβ 40 reduction in rat brain at 10 mpk (Aβ 40 in rat brain): 76%

Compound: C[C@]1(c2cc(Nc3ncnc4cc(C#N)cnc34)cc(F)c2F)N=C(N)S[C@H]2C[C@H]21 [Example 36, 4-((3-((1S,5S,6S)-3-amino-5-methyl-2-thia-4-azabicyclo[4.1.0]hept-3-en-5-yl)-4,5-difluorophenyl)amino)pyrido[3,2-d]pyrimidine-7-carbonitrile]
IC50 (human recombinant BACE2): 0.0562 µM
IC50 [1]: 0.00767 µM
IC50 (Recombinant Cat D): 250 µM
% Aβ 40 reduction in rat CSF at 10 mpk (Aβ 40 in rat CSF): 74%
% Aβ 40 reduction in rat brain at 10 mpk (Aβ 40 in rat brain): 46%

Continued, in another order:

IC50 (human recombinant BACE1): 0.0157 µM
IC50 (human recombinant BACE2): 0.00728 µM
IC50 [1]: 0.0144 µM
IC50 (Recombinant Cat D): > 133 µM
Compound: N#Cc1cnc2c(Nc3ccc(F)c([C@@]4(CF)N=C(N)S[C@H]5CC54)c3)nccc2c1 (stereo in doubt) [Example 38, 8-((3-((1S,5S,6S)-3-amino-5-(fluoromethyl)-2-thia-4-azabicyclo[4.1.0]hept-3-en-5-yl)-4-fluorophenyl)amino)-1,7-naphthyridine-3-carbonitrile]
% Aβ 40 reduction in rat CSF at 10 mpk (Aβ 40 in rat CSF): 66%
% Aβ 40 reduction in rat brain at 10 mpk (Aβ 40 in rat brain): 44%

IC50 (human recombinant BACE1): 0.00538 µM
IC50 (human recombinant BACE2): 0.27 µM
IC50 [1]: 0.0135 µM
IC50 (Recombinant Cat D): > 400 µM
Compound: NC1=N[C@](CF)(c2cc(Nc3nccc4nc(OCc5ncco5)cnc34)ccc2F)C2C[C@@H]2S1 (stereo in doubt) [Example 56, N-(3-((1S,5S,6S)-3-amino-5-(fluoromethyl)-2-thia-4-azabicyclo[4.1.0]hept-3-en-5-yl)-4-fluorophenyl)-2-(1,3-oxazol-2-ylmethoxy)pyrido[3,4-b]pyrazin-5-amine]
% Aβ 40 reduction in rat CSF at 10 mpk (Aβ 40 in rat CSF): 50%
% Aβ 40 reduction in rat brain at 10 mpk (Aβ 40 in rat brain): 32%

IC50 (human recombinant BACE1): 0.00747 µM
IC50 (human recombinant BACE2): 0.0129 µM
IC50 [1]: 0.00437 µM
IC50 (Recombinant Cat D): > 400 µM
Compound: N#Cc1ccc(C(=O)Nc2ccc(F)c([C@@]3(CF)N=C(N)S[C@H]4C[C@H]43)c2)nc1 [Example 2, N-(3-((1S,5S,6S)-3-amino-5-(fluoromethyl)-2-thia-4-azabicyclo[4.1.0]hept-3-en-5-yl)-4-fluorophenyl)-5-cyano-2-pyridinecarboxamide]
% Aβ 40 reduction in rat CSF at 10 mpk (Aβ 40 in rat CSF): 72%
% Aβ 40 reduction in rat brain at 10 mpk (Aβ 40 in rat brain): 67%

IC50 (human recombinant BACE1): 0.0104 µM
IC50 (human recombinant BACE2): 0.0275 µM
IC50 [1]: 0.0119 µM
IC50 (Recombinant Cat D): > 400 µM
Compound: N#Cc1ccc(C(=O)Nc2cc(F)c(F)c([C@@]3(CF)N=C(N)S[C@H]4C[C@H]43)c2)nc1 [Example 11, N-(3-((1S,5S,6S)-3-amino-5-(fluoromethyl)-2-thia-4-azabicyclo[4.1.0]hept-3-en-5-yl)-4,5-difluorophenyl)-5-cyano-2-pyridinecarboxamide]
% Aβ 40 reduction in rat CSF (3 mpk) (Aβ 40 in rat CSF; 3 mpk): 41 (3 mpk) %
% Aβ 40 reduction in rat brain (3 mpk) (Aβ 40 in rat brain; 3 mpk): 25 (3 mpk) %

IC50 (human recombinant BACE1): 0.0145 µM
IC50 (human recombinant BACE2): 0.00534 µM
IC50 [1]: 0.0164 µM
IC50 (Recombinant Cat D): > 133 µM
Compound: C[C@]1(c2cc(Nc3nccc4cc(C#N)cnc34)cc(F)c2F)N=C(N)S[C@H]2C[C@H]21 [Example 21, 8-((3-((1S,5S,6S)-3-amino-5-methyl-2-thia-4-azabicyclo[4.1.0]hept-3-en-5-yl)-4,5-difluorophenyl)amino)-1,7-naphthyridine-3-carbonitrile]
% Aβ 40 reduction in rat CSF at 10 mpk (Aβ 40 in rat CSF): 61%
% Aβ 40 reduction in rat brain at 10 mpk (Aβ 40 in rat brain): 40%

IC50 (human recombinant BACE1): 0.0107 µM
IC50 [1]: 0.0213 µM
IC50 (Recombinant Cat D): > 133 µM
Compound: N#Cc1cnc2c(Nc3cc(F)c(F)c([C@@]4(CF)N=C(N)S[C@H]5C[C@H]54)c3)nccc2c1 [Example 26, 8-((3-((1S,5S,6S)-3-amino-5-(fluoromethyl)-2-thia-4-azabicyclo[4.1.0]hept-3-en-5-yl)-4,5-difluorophenyl)amino)-1,7-naphthyridine-3-carbonitrile]
% Aβ 40 reduction in rat CSF at 10 mpk (Aβ 40 in rat CSF): 38%
% Aβ 40 reduction in rat brain at 10 mpk (Aβ 40 in rat brain): 34%

IC50 (human recombinant BACE2): 0.0497 µM
IC50 [1]: 0.0204 µM
IC50 (Recombinant Cat D): 466 µM
Compound: N#Cc1cnc2c(Nc3cc(F)c(F)c([C@@]4(CF)N=C(N)S[C@H]5C[C@H]54)c3)ncnc2c1 [Example 28, 4-((3-((1S,5S,6S)-3-amino-5-(fluoromethyl)-2-thia-4-azabicyclo[4.1.0]hept-3-en-5-yl)-4,5-difluorophenyl)amino)pyrido[3,2-d]pyrimidine-7-carbonitrile]
% Aβ 40 reduction in rat CSF at 10 mpk (Aβ 40 in rat CSF): 42%
% Aβ 40 reduction in rat brain at 10 mpk (Aβ 40 in rat brain): 26%
